Data published in patent US12522594B2, “2-heteroaryl-3-oxo-2,3-dihydropyridazine-4-carboxamides for the treatment of cancer” (Deutsches Krebsforschungszentrum, priority 2017, dated 2026).

Tests used:
AHR [1] = molecular target: T1, AHR (Homo sapiens, UniProt P35869); test: In vitro assay 1: antagonism in human cell line (transactivation assay, U87 cells prestimulated with kynurenic acid, DRE firefly luciferase reporter); format: cell-based; set-up: host or cells: U87 glioblastoma cells, stably transfected with DRE firefly luciferase and renilla reporter constructs; conditions: 150 uM kynurenic acid, 20 hours, read-out: Assay 1: AHR-luc Hum Antagonism IC50
T1 sequence (P35869 11-848): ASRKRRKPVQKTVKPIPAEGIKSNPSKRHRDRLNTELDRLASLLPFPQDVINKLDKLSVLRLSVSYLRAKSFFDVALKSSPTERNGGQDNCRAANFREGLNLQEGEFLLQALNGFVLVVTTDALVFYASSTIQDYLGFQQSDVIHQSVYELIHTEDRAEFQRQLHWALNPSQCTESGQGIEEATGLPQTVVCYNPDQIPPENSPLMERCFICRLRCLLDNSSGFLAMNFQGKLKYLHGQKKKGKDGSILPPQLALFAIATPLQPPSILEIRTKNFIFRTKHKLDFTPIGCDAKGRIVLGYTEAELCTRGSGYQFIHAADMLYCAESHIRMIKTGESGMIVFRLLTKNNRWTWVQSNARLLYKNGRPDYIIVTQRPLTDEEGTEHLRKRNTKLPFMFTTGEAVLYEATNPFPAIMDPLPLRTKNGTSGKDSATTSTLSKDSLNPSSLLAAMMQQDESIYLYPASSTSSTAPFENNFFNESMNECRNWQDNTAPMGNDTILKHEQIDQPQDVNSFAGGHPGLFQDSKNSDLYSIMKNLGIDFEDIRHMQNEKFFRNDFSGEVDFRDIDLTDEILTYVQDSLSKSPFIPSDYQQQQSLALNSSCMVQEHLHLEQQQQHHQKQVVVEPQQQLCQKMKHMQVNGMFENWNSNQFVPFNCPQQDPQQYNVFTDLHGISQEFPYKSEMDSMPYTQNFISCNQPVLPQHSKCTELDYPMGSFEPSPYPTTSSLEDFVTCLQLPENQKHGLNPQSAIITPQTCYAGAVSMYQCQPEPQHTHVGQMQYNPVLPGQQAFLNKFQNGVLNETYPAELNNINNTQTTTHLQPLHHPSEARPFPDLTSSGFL
How it was run: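 U87 glioblastoma cells with endogenous AHR, stably carrying a DRE-driven firefly luciferase reporter and a constitutive renilla reporter. Cells prestimulated with the AHR agonist kynurenic acid before compound addition; data normalized to positive and negative controls.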

AHR [2] = molecular target: T1, AHR; test: In vitro assay 2: agonism in human cell line (transactivation assay, U87 cells, DRE firefly luciferase reporter); format: cell-based; set-up: host or cells: U87 glioblastoma cells, stably transfected with DRE firefly luciferase and renilla reporter constructs; conditions: no kynurenic acid, 20 hours, read-out: Assay 2: AHR-luc Hum Agonism IC50
How it was run: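 U87 glioblastoma cells with endogenous AHR, stably carrying DRE-driven firefly luciferase and constitutive renilla reporters. 300 uM kynurenic acid served as positive activation control; data normalized to positive and negative controls.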

SMILES	IC50 (AHR [1]) [nM]	IC50 (AHR [2]) [µM]
O=C(NCC1(O)CCC1)c1cc(-c2ccc(C(F)(F)F)cc2)nn(-c2cnsc2)c1=O [Example 195, N-[(1-Hydroxycyclobutyl)methyl]-3-oxo-2-(1,2-thiazol-4-yl)-6-[4-(trifluoromethyl)phenyl]-2,3-dihydropyridazine-4-carboxamide]	0.363	> 20
C[C@H](NC(=O)c1cc(-c2ccc(C(F)(F)F)cc2)nn(-c2cnsc2)c1=O)C(C)(C)O [Example 196, N-[(2S)-3-Hydroxy-3-methylbutan-2-yl]-3-oxo-2-(1,2-thiazol-4-yl)-6-[4-(trifluoromethyl)phenyl]-2,3-dihydropyridazine-4-carboxamide]	0.418	> 20
O=C(N[C@H](CO)C(F)(F)F)c1cc(-c2ccc(Cl)cc2)nn(-c2cnsc2)c1=O [Example 198, 6-(4-Chlorophenyl)-3-oxo-2-(1,2-thiazol-4-yl)-N-[(2R)-1,1,1-trifluoro-3-hydroxypropan-2-yl]-2,3-dihydropyridazine-4-carboxamide]	0.599	> 20
O=C(NC[C@H](O)C(F)(F)F)c1cc(-c2ccc(Cl)cc2)nn(-c2cnsc2)c1=O [Example 199, 6-(4-Chlorophenyl)-3-oxo-2-(1,2-thiazol-4-yl)-N-[(2S)-3,3,3-trifluoro-2-hydroxypropyl]-2,3-dihydropyridazine-4-carboxamide]	0.694	> 20
O=C(NCC1(O)CCC1)c1cc(-c2ccc(Cl)cc2)nn(-c2cnsc2)c1=O [Example 200, 6-(4-Chlorophenyl)-N-[(1-hydroxycyclobutyl)methyl]-3-oxo-2-(1,2-thiazol-4-yl)-2,3-dihydropyridazine-4-carboxamide]	0.734	> 20
O=C(N[C@H](CO)CF)c1cc(-c2ccc(Cl)cc2)nn(-c2cnsc2)c1=O [Example 201, 6-(4-Chlorophenyl)-N-[(2R)-1-fluoro-3-hydroxypropan-2-yl]-3-oxo-2-(1,2-thiazol-4-yl)-2,3-dihydropyridazine-4-carboxamide]	0.823	> 20
C[C@@H](NC(=O)c1cc(-c2ccc(C(F)(F)F)cc2)nn(-c2cnn(C)c2)c1=O)C(C)(C)O [Example 202, N-[(2R)-3-Hydroxy-3-methylbutan-2-yl]-2-(1-methyl-1H-pyrazol-4-yl)-3-oxo-6-[4-(trifluoromethyl)phenyl]-2,3-dihydropyridazine-4-carboxamide]	0.825	> 20
O=C(N[C@H](CO)CF)c1cc(-c2ccc(C(F)(F)F)cc2)nn(-c2cnsc2)c1=O [Example 203, N-[(2R)-1-Fluoro-3-hydroxypropan-2-yl]-3-oxo-2-(1,2-thiazol-4-yl)-6-[4-(trifluoromethyl)phenyl]-2,3-dihydropyridazine-4-carboxamide]	0.852	> 20
C[C@@H](CO)NC(=O)c1cc(-c2ccc(C(F)(F)F)cc2)nn(-c2cnsc2)c1=O [Example 205, N-[(2S)-1-Hydroxypropan-2-yl]-3-oxo-2-(1,2-thiazol-4-yl)-6-[4-(trifluoromethyl)phenyl]-2,3-dihydropyridazine-4-carboxamide]	1.06	> 20
C[C@H](NC(=O)c1cc(-c2ccc(C(F)(F)F)cc2)nn(-c2cnn(C)c2)c1=O)C(C)(C)O [Example 206, N-[(2S)-3-Hydroxy-3-methylbutan-2-yl]-2-(1-methyl-1H-pyrazol-4-yl)-3-oxo-6-[4-(trifluoromethyl)phenyl]-2,3-dihydropyridazine-4-carboxamide]	1.07	> 20
O=C(N[C@H](CO)C1CC1)c1cc(-c2ccc(C(F)(F)F)cc2)nn(-c2cnsc2)c1=O [Example 207, N-[(1S)-1-Cyclopropyl-2-hydroxyethyl]-3-oxo-2-(1,2-thiazol-4-yl)-6-[4-(trifluoromethyl)phenyl]-2,3-dihydropyridazine-4-carboxamide]	1.21	> 20
CC(C)(O)CNC(=O)c1cc(-c2ccc(C(F)(F)F)cc2)nn(-c2cnsc2)c1=O [Example 208, N-(2-Hydroxy-2-methylpropyl)-3-oxo-2-(1,2-thiazol-4-yl)-6-[4-(trifluoromethyl)phenyl]-2,3-dihydropyridazine-4-carboxamide]	1.22	> 20
C[C@H](NC(=O)c1cc(-c2ccc(Cl)cc2)nn(-c2cnsc2)c1=O)C(C)(C)O [Example 209, 6-(4-Chlorophenyl)-N-[(2S)-3-hydroxy-3-methylbutan-2-yl]-3-oxo-2-(1,2-thiazol-4-yl)-2,3-dihydropyridazine-4-carboxamide]	1.24	> 20
O=C(N[C@H](CO)C(F)(F)F)c1cc(-c2ccc(C(F)(F)F)cc2)nn(-c2cn[nH]c2)c1=O [Example 212, 3-Oxo-2-(1H-pyrazol-4-yl)-N-[(2R)-1,1,1-trifluoro-3-hydroxypropan-2-yl]-6-[4-(trifluoromethyl)phenyl]-2,3-dihydropyridazine-4-carboxamide]	1.69	> 20
CC(C)(O)C(NC(=O)c1cc(-c2ccc(C(F)(F)F)cc2)nn(-c2cccnc2)c1=O)C(F)(F)F (stereo not shown) [Example 213, 3-Oxo-2-(pyridin-3-yl)-N-(1,1,1-trifluoro-3-hydroxy-3-methylbutan-2-yl)-6-[4-(trifluoromethyl)phenyl]-2,3-dihydropyridazine-4-carboxamide]	1.92	> 20
O=C(N[C@H](CO)C(F)(F)F)c1cc(-c2ccc(C(F)(F)F)cc2)nn(-c2cnn(C(F)F)c2)c1=O [Example 214, 2-[1-(Difluoromethyl)-1H-pyrazol-4-yl]-3-oxo-N-[(2R)-1,1,1-trifluoro-3-hydroxypropan-2-yl]-6-[4-(trifluoromethyl)phenyl]-2,3-dihydropyridazine-4-carboxamide]	2.07	> 20
O=C(NC[C@H](O)C(F)(F)F)c1cc(-c2ccc(C(F)(F)F)cc2)nn(-c2cn[nH]c2)c1=O [Example 216, 3-Oxo-2-(1H-pyrazol-4-yl)-N-[(2S)-3,3,3-trifluoro-2-hydroxypropyl]-6-[4-(trifluoromethyl)phenyl]-2,3-dihydropyridazine-4-carboxamide]	2.38	> 20
Cn1cc(-n2nc(-c3ccc(C(F)(F)F)cc3)cc(C(=O)NC[C@H](O)C(F)F)c2=O)cn1 [Example 219, N-[(2S)-3,3-Difluoro-2-hydroxypropyl]-2-(1-methyl-1H-pyrazol-4-yl)-3-oxo-6-[4-(trifluoromethyl)phenyl]-2,3-dihydropyridazine-4-carboxamide]	3.21	> 20
O=C(N[C@H](CO)CF)c1cc(-c2ccc(C(F)(F)F)cc2)nn(-c2cccnc2)c1=O [Example 221, N-[(2R)-1-Fluoro-3-hydroxypropan-2-yl]-3-oxo-2-(pyridin-3-yl)-6-[4-(trifluoromethyl)phenyl]-2,3-dihydropyridazine-4-carboxamide]	3.63	> 20
CC(C)(O)CNC(=O)c1cc(-c2ccc(Cl)cc2)nn(-c2cnsc2)c1=O [Example 222, 6-(4-Chlorophenyl)-N-(2-hydroxy-2-methylpropyl)-3-oxo-2-(1,2-thiazol-4-yl)-2,3-dihydropyridazine-4-carboxamide]	4.27	> 20
O=C(NC[C@H](O)C(F)(F)F)c1cc(-c2ccc(C(F)(F)F)cc2)nn(-c2cnn(C(F)F)c2)c1=O [Example 223, 2-[1-(Difluoromethyl)-1H-pyrazol-4-yl]-3-oxo-N-[(2S)-3,3,3-trifluoro-2-hydroxypropyl]-6-[4-(trifluoromethyl)phenyl]-2,3-dihydropyridazine-4-carboxamide]	4.31	> 20
Cc1cc(-n2nc(-c3ccc(Cl)cc3)cc(C(=O)NC[C@H](O)C(F)(F)F)c2=O)cs1 [Example 225, 6-(4-Chlorophenyl)-2-(5-methyl-3-thienyl)-3-oxo-N-[(2S)-3,3,3-trifluoro-2-hydroxypropyl]-2,3-dihydropyridazine-4-carboxamide]	5.04	> 20
C[C@H](NC(=O)c1cc(-c2ccc(C(F)(F)F)cc2)nn(-c2cccnc2)c1=O)C(C)(C)O [Example 226, N-[(2S)-3-Hydroxy-3-methylbutan-2-yl]-3-oxo-2-(pyridin-3-yl)-6-[4-(trifluoromethyl)phenyl]-2,3-dihydropyridazine-4-carboxamide]	5.91	> 20
